Data from patent US8080529B2, “Macrolides with anti-inflammatory activity” (Glaxo Group Limited, priority 2005, dated 2011).

How the values were obtained:
Assay type in all cases: in vivo
IL-6 = experiment: Lung neutrophilia induced by bacterial lipopolysaccharide in male BALB/cJ mice: IL-6 in BALF; settings: 2.5 mg i.p.; 24 hours after LPS
Experimental: (§1) Male BALB/cJ mice (Iffa Credo, France), with average weight 30 g were randomly grouped (n=7 in testing group, 8 in positive control, 7 in negative control). Mice were administered intraperitoneally (i.p.) a single dose of 5 or 2.5 mg of test compound. Two hours after administration, 2 μg of bacterial lipopolysaccharide (LPS), dissolved in PBS in a volume of 60 μL, was intranasally administered to all experimental groups except the negative control group, which received the same volume (60 μL) of vehicle PBS. Animals were sacrificed approximately 24 hours after application of LPS in order to obtain bronchoalveolar lavage fluid (BALF), which was used to determine concentrations of IL-6 and TNF-α, absolute number of cells, and the percentage of neutrophils in BALF. Results are expressed as percentage of decrease of total cell number, relative number of neutrophils, and TNF-α, and IL-6 concentration in BALF of treated animals compared to positive control (LPS stimulated, but untreated animals).
(§2) Results are expressed as percentage of decrease of total cell number, relative number of neutrophils, and TNF-alpha and IL-6 concentration in BALF of treated animals compared to positive control (LPS stimulated, but untreated animals).

TNF-α [1] = experiment: Lipopolysaccharide induced TNF-α production in Balb/cJ mice; settings: Mus musculus, ip, 1.5 h; 10 mg/kg intraperitoneally, 30 min before LPS; 90 min after LPS; read-out: % inhibition of TNF-α production (plasma)
Experimental: Male Balb/cJ mice (Iffa Credo, France) weighing 25-33 g were randomly grouped (n=7 in test group, 7 in positive control group, 4 in negative control group). Test compounds, as well as vehicle [0.125% carboxymethyl-cellulose (Sigma, USA)], were administered to the mice intraperitoneally. Test compounds were administered at a dose of 10 mg/kg of body weight, in a volume of 10 mL/kg of body weight. Thirty minutes later, a sterile solution of lipopolysaccharide (LPS) (Sigma, USA) in saline was intraperitoneally administered at a concentration and volume of 25 μg/0.2 mL/mouse to each animal, except those in negative control. Ninety minutes following administration, all animals were sacrificed by puncturing a. carotis communis. The plasma concentration of TNF-α was determined by sandwich ELISA, using capture and detection antibodies (R&D, USA) according to manufacturer's recommendations. Results are presented in the following table as percent of inhibition of TNF-α production in comparison to the positive control (stimulated, but untreated animals).

TNF-α [2] = experiment: Lung neutrophilia induced by bacterial lipopolysaccharide in male BALB/cJ mice: TNF-α in BALF; settings: 2.5 mg i.p.; 24 hours after LPS
Experimental: as §1, §2

neutrophils = experiment: Lung neutrophilia induced by bacterial lipopolysaccharide in male BALB/cJ mice: cells in BALF and lung tissue; settings: 2.5 mg i.p.; 24 hours after LPS
Experimental: as §1, §2
Besides accumulation of inflammatory cells in BALF, the extent and anatomic site of pulmonary inflammation induced by LPS was assessed 24 hours after PBS or LPS exposure. Accumulation of granulocytes and mononuclear cells in peribronchial (PB) and perivascular (PV) lung tissue areas and in alveolar spaces was monitored following sacrifice of the animals.

SMILES: CC[C@H]1OC(=O)[C@H](C)[C@@H](O[C@H]2C[C@@](C)(OC)C(OC(=O)CCN(CC)CC)[C@H](C)O2)[C@H](C)[C@@H](O[C@@H]2O[C@H](C)C[C@H](N(C)C(C)=O)[C@H]2O)[C@](C)(OC)C[C@@H](C)C(=O)N[C@H](C)[C@@H](O)[C@]1(C)O (some centres unmarked) [Example 62, 3′-N-methyl-3′-N-acetyl-4″-O-(3-diethylaminopropionyl)-6-O-methyl-9a-aza-9a-homoerythromycin A]
- Percentage of decrease of IL-6 concentration in BALF (IL-6): 22%
- inhibition in vivo at 10 mg/kg (TNF-α [1]): 59%
- Percentage of decrease of TNF-α concentration in BALF (TNF-α [2]): 62%
- % decrease of neutrophils in BALF (neutrophils): 13%
- % decrease of total cell no. in BALF (neutrophils): 47%
